Measured values from ChEMBL document CHEMBL1156829 (Proc Natl Acad Sci U S A, 2008).

Columns and labels:
Plasmodium falciparum [1] = test: NOVARTIS: Inhibition of Plasmodium falciparum 3D7 (drug-susceptible) proliferation in erythrocyte-based infection assay; assay type: functional, organism-based; settings: Plasmodium falciparum, 3D7
Plasmodium falciparum [2] = test: NOVARTIS: Inhibition of Plasmodium falciparum W2 (drug-resistant) proliferation in erythrocyte-based infection assay; assay type: functional, organism-based
[3] = NOVARTIS: Cytotoxicity against human hepatocellular carcinoma cell line (Huh7); assay type: toxicity, cell-based, Huh-7; settings: Huh7 cells (hepatocellular carcinoma cell line)
[4] = Plasmodium falciparum, W2, read-out: EC50

Structure (SMILES) | EC50 (Plasmodium falciparum [1]) [nM] | EC50 (Plasmodium falciparum [2]; [4]) [nM] | CC50 [3] [nM] | EC50 (Plasmodium falciparum [2])
O=C(NNC(=O)c1csnn1)c1ccc(C(F)(F)F)cc1 | 641 | 792 | > 100000 | 
Cc1cc(Nc2cccc(Cl)c2)nc2ccc(NC(=O)c3cccnc3)cc12 | 721 | 1310 | 4190 | 
CCc1noc(C)c1C(=O)NCCN1Cc2ccccc2OC(c2ccsc2)C1 (stereo unspecified) | 827 | 615 | > 100000 | 
COc1cc(C2C3=C(CC(C)(C)CC3=O)Nc3ccccc3N2C(=O)C(C)C)cc(OC)c1OC (stereo unspecified) | > 1250 | 40.7 | > 10000 | 
CCOC(=O)CCCCC(=O)c1[nH]c(=O)[nH]c1Cn1ccnc1 | 152 | 165 | > 100000 | 
CCOc1ccc2nc3cc(NC(=O)c4ccc(C)cc4)ccc3c(N)c2c1 | > 1190 | 997 | > 10000 | 
O=C1NC(=S)NC1=Cc1cccc(Oc2ccccc2)c1 | > 6890 | 1940 | > 100000 | 
C=CCOc1c(Br)cc(C=c2sc3n(c2=O)C(c2ccc(OC)c(OC)c2)C(C(=O)OCC)=C(C)N=3)cc1OC (stereo unspecified) | > 12500 | 576 | > 100000 | 
COc1ccccc1CNC(=O)CCn1c(=O)[nH]c2ccccc2c1=O | 537 | 133 | > 10000 | 
CCOC(=O)N1CCN(C(=O)c2ccc(N3CC4CC(C3)c3cccc(=O)n3C4)c(NS(=O)(=O)c3ccc4c(c3)OCCO4)c2)CC1 (stereo unspecified) | 2470 | 589 | > 100000 | 
O=C(Nc1cc(Cl)cc(Cl)c1)C1C2C=CC3(O2)C1C(=O)N(CCC1=CCCCC1)C3C(=O)NC1CCCCC1 (stereo unspecified) | > 11000 | 1710 | > 100000 | 
COc1ccc(C2C(C(=O)OC3CCCCC3)=C(C)Nc3nnnn32)cc1 (stereo unspecified) | > 10000 | > 11200 | > 74100 | 
Cc1ccccc1C[n+]1cc(-c2ccc(Cl)cc2)n2c1CCC2 | 1390 | 1720 | > 100000 | 
FC(F)(F)c1cccc(Nc2nnnc3ccccc23)c1 | 756 | 433 | > 10000 | 
C[n+]1c(C=Cc2ccc(F)cc2)ccc2ccccc21 | 8110 | 11100 | > 100000 | 
CCOC(=O)C[n+]1cc(CC)sc1N | > 1070 | > 1250 | > 10000 | 
OC(CN1CCOCC1)Cn1cnc2c(SCc3ccccc3)ncnc21 (stereo unspecified) | > 12500 | > 9670 | > 100000 | 
Cc1cc(C(=O)N2CCOc3c(cc(-c4csc5ccccc45)cc3OCCc3ccccn3)C2)n(C)n1 | 32.5 | 13.9 | 46900 | 
CCOCCCNc1nc2cc(OC)c(OC)cc2c2nc(-c3ccccc3)nn12 | 83.1 | 56.3 | > 100000 | 
Cc1ccc(O)c(NC(=O)c2cnn3c(C(F)(F)F)cc(-c4ccc(F)cc4)nc23)c1 | 10500 | 5720 | > 100000 | 
O=C(Nc1ccc(-c2nnc(-c3ccccc3)o2)cc1)c1ccc(Br)cc1 | 750 | > 1250 | > 10000 | 
O=C(Nc1ccc(-c2nc3cc(NC(=O)c4ccc(Br)o4)ccc3[nH]2)cc1)c1ccc(Br)o1 | 294 | 709 | 2250 | 
CN(CCCNc1ccnc2cc(Cl)ccc12)C(=O)c1ccc(Cl)cc1 | 122 | 75.6 | > 8530 | 

Structure (SMILES) | EC50 (Plasmodium falciparum [1]) [nM] | EC50 (Plasmodium falciparum [2]; [4]) [nM] | CC50 [3] [nM] | EC50 (Plasmodium falciparum [2])
COC(=O)c1c(S(=O)(=O)N2CCN(C)CC2)sc2c1CCN(CCCc1ccccc1)C2 | 1420 | 1260 | > 10000 | 
CN(C)c1cc[n+](Cc2c(Cl)cccc2Cl)cc1 | 140 | 598 | 642 | 
Cn1cc(S(=O)(=O)c2cccc(Cl)c2)c(=O)c2cc(F)c(N3CCCCC3)cc21 | 1030 | > 372 | > 10000 | 
Cc1ccn2c(NC(C)(C)CC(C)(C)C)c(-c3ccccc3OC(=O)c3ccc(C(F)(F)F)cc3)nc2c1 | 847 | 19.9 | > 10000 | 
NCCNC(=O)COC(c1cccnc1)c1ccccc1Cl (stereo unspecified) | > 1250 | > 1150 | > 10000 | 
COc1cc2c(N3CCOCC3)cc(O)c(CC(=O)Nc3ccccc3)c2cc1OC | 626 | 712 | > 100000 | 
CCCCCCn1c2c(c(=N)c3c1CCC3)CCCC2 | 364 | 336 | > 10000 | 
C#CCNC(=O)c1ccc(OC2CCN(CC(c3ccccc3)c3ccccc3)CC2)c(OC)c1 | 207 | 88.3 | 55000 | 
Cc1cc(Nc2ccc(C)c(Cl)c2)n2ncnc2n1 | 1400 | > 927 | > 10000 | 
CCOC(=O)C(=O)N1c2ccccc2-c2c(ssc2=S)C1(C)C | 91.6 | 73.5 | > 100000 | 
CCOC(=O)C1CCN(C(c2cc3cc(OC)c(OC)cc3[nH]c2=O)c2nnnn2Cc2ccccc2)CC1 (stereo unspecified) | 419 | 158 | > 100000 | 
Cn1c(=O)c2c(nc(N3CCN(C(=O)Nc4ccc(F)cc4F)CC3)n2C)n(C)c1=O | > 1250 | 1200 | > 10000 | 
CC(C)(C)C1=CC(=C2C=C(C(C)(C)C)SC(C(C)(C)C)=C2)C=C(C(C)(C)C)S1 | 805 | 506 | > 10000 | 
O=[N+]([O-])c1cccc(-c2ccc(C=NNc3nc4ccccc4[nH]3)o2)c1 | 379 | 344 | > 100000 | 
O=C(NC1CCN(CC(O)CN(Cc2ccccc2)S(=O)(=O)c2ccccc2)C1)C1CCCCC1 (stereo unspecified) | 185 | 116 | > 10000 | 
COc1ccccc1CCNCc1cc(-c2ccc(F)cc2)ccc1O | 1050 | 869 | > 10000 | 
COc1ccccc1NC(=O)N(CCC(C)C)C(C)c1nc2ccccc2c(=O)n1-c1ccccc1Cl (stereo unspecified) | 817 | < 25.8 | > 10000 | 
COc1ccc(C2C(C(N)=O)=C(C)Nc3ncnn32)cc1OC (stereo unspecified) | 380 | 1150 | > 10000 | 
NC(=O)NN=C1c2cc(S(=O)(=O)NCc3ccco3)ccc2-c2ccc(S(=O)(=O)NCc3ccco3)cc21 | 1180 | > 1540 | > 10000 | 
CCOC(=O)c1c(NC(=O)CSc2nnc(CNC(=O)c3ccc(C)c(C)c3)n2C2CCCCC2)sc2c1CCC2 | > 1090 | > 1400 | > 10000 | 
C(=NNc1nc2ccccc2[nH]1)c1cccc(Oc2ccccc2)c1 | 302 | 962 | > 100000 | 
CC(CCc1ccccc1)N1CC(c2cccc([N+](=O)[O-])c2)OC1=S (stereo unspecified) | 307 | 18 | 32800 | 
CC(=O)Nc1ccc(S(=O)(=O)N2CCC(c3nc(-c4cccnc4)no3)CC2)cc1 | > 9640 | 736 | > 100000 | 

Structure (SMILES) | EC50 (Plasmodium falciparum [1]) [nM] | EC50 (Plasmodium falciparum [2]; [4]) [nM] | CC50 [3] [nM] | EC50 (Plasmodium falciparum [2])
COC(=O)C1=C(O)/C(=C\c2cc(C)n(-c3ccccc3F)c2C)N=C1C | > 974 | > 1250 | > 10000 | 
CCCCC(=O)Oc1ccccc1-c1nc2ccccn2c1NC(C)(C)CC(C)(C)C | 296 | < 7.1 | 1920 | 
O=C(COc1ccc(Cl)cc1)Nc1cccc(-c2nc3ncccc3o2)c1 | 1640 | 311 | > 100000 | 
Cc1ccc(-c2nc3cc(NC(=O)c4ccc(Cl)cc4Cl)ccc3o2)cc1 | > 864 | > 1050 | > 10000 | 
CC[n+]1c(/C=C/c2ccc(OC)cc2)ccc2ccccc21 | 110 | 85.8 | > 10000 | 
COc1cc(NC(C)CCCN(Cc2ccc(N(C)C)cc2)C(=O)c2ccc(F)cc2)c2ncccc2c1 (stereo unspecified) | > 630 | 501 | > 10000 | 
Cc1ccc(-n2c(C(C)N(Cc3ccco3)C(=O)C3CCC3)nc3cc(Cl)ccc3c2=O)cc1 (stereo unspecified) | > 1680 | 208 | > 2760 | 
CC1(C)CC(=O)C2=C(C1)Nc1ccccc1N(C(=O)Cc1ccccc1)C2c1ccc([N+](=O)[O-])s1 (stereo unspecified) | > 1250 | 89.8 | > 10000 | 
COc1cc2c(cc1OC)C(COc1ccc(F)cc1)N(C(=O)c1ccc(OC(C)C)cc1)CC2 (stereo unspecified) | 155 | 1400 | > 100000 | 
CCOC(=O)NN=C1C=C2C=CC3C(CC[C@@]4(C)C3CC3CCCCC34C(C)=O)[C@@]2(C)CC1 (stereo partly specified) | > 902 | > 1560 | > 10000 | 
CCOC(=O)c1cnc2c(OC)cccc2c1Nc1cccc(C(F)(F)F)c1 | 926 |  | 26000 | No fit
CN(CCCNc1ccnc2cc(Cl)ccc12)C(=O)c1cccc(Cl)c1 | 269 | 202 | 7340 | 
Cc1ccccc1C(=O)NCCCCNc1ccnc2cc(Cl)ccc12 | 450 | 479 | > 10000 | 
FC(F)(F)COc1ccc(OCC(F)(F)F)c(-c2ncnn2-c2ccccc2)c1 | > 9910 | > 12500 | > 100000 | 
Cc1cc(N2CCN(C3CCCC3)CC2)n2c(nc3ccccc32)c1C#N | 743 | 1670 | > 100000 | 
COc1cccc(CN2CCc3nc(N4CCCCC4)sc3C2)c1 | 520 | 216 | > 10000 | 
Cc1ccc(NC2=C(c3ccc(C(F)(F)F)cc3)C(=O)c3ccccc32)cc1C | 1240 | 1690 | > 100000 | 
CCN(CC)CCCN(Cc1cc2cc(OC)ccc2[nH]c1=O)C(=S)Nc1cccc(Cl)c1 | 798 | 809 | 20500 | 
NC(Cc1ccccc1)C(=O)N1CCC(Nc2nsc3ccccc23)C1 (stereo unspecified) | 1110 | 1510 | 12700 | 
COc1ccc(-c2c[n+](CC(=O)c3ccccc3Cl)c3n2CCC3)cc1 | 1070 | 1290 | > 100000 | 
Cc1ccn2c(NC(C)(C)CC(C)(C)C)c(-c3ccccc3OC(=O)CCc3ccccc3)nc2c1 | 853 | 18.6 | > 10000 | 
